Laboratory results from patent US10947274B1 (priority 2018, dated 2021).

Columns and labels:
[1] = assay type: physicochemical
[2] = biological target: human α9α10 nicotinic acetylcholine receptor (nAChR) (human) (UniProt Q9UGM1); test: cell-based or functional assay
α7 nAChR = α7 nAChR (Rattus norvegicus, UniProt Q05941); conditions: cited from earlier work
Chain of α7 nAChR (Q05941 23-502 limits assumed): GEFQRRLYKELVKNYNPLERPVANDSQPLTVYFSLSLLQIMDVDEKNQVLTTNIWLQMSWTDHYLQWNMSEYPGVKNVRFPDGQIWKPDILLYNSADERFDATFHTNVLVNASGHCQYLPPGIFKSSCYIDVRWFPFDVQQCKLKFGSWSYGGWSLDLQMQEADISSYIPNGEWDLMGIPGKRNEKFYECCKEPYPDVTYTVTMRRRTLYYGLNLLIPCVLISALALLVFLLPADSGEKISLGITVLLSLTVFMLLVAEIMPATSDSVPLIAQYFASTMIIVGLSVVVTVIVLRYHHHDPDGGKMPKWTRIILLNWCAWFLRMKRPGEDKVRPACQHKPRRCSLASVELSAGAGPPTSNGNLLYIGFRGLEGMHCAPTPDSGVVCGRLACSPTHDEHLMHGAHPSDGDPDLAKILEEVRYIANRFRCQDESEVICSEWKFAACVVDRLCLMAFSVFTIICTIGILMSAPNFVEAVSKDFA

Chain of human α9α10 nicotinic acetylcholine receptor (nAChR) (human) (Q9UGM1 23-479, chain 1 of 2): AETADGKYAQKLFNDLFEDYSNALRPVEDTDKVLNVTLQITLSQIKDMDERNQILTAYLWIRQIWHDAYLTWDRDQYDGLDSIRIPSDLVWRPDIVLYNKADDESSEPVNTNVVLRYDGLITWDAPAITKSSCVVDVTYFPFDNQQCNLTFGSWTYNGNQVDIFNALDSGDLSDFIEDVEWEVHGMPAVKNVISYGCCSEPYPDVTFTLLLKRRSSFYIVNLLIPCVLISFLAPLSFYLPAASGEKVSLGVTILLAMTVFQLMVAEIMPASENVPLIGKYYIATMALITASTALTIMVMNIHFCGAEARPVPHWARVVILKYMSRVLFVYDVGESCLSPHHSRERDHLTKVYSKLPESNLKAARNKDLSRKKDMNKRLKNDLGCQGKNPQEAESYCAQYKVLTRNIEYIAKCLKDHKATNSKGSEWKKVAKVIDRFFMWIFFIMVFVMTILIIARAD
Chain of human α9α10 nicotinic acetylcholine receptor (nAChR) (human) (Q9GZZ6 25-450, chain 2 of 2, further chain): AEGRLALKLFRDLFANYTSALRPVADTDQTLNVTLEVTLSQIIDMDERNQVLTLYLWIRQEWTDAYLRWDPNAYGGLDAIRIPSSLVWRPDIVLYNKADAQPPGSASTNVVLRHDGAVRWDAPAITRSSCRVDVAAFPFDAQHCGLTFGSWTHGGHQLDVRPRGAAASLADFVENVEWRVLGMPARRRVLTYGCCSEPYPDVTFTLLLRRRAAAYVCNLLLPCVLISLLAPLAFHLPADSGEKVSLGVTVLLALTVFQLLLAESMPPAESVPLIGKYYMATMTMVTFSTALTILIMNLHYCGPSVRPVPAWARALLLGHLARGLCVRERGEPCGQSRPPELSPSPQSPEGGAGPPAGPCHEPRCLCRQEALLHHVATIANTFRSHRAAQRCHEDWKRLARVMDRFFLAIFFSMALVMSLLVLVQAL

GCCTDPRC(Cit)(I-3-Y)QCY [RgIA4]
area under the curve, % of the total ([1]; at 8 h): 26.3%
share of intact (globular) peptide over time ([1]; pH 7.3): minority component

[C3Pen;14R]RgIA5 (peptide)
IC50 (nM), block of the acetylcholine response, voltage-clamped Xenopus oocytes [2]: 0.5 nM

α-conotoxin ImI
IC50 (α7 nAChR): 69.3 ± 15.5 nM
